We go through two compounds from patent US20240383971A1, “Anti-DFS70 Autoantibodies and methods of attenuating formation of nets” (McMaster University, priority 2023, published 2024).

This assay deals with neutrophils isolated from healthy donors. Put plainly: In vitro NETosis assay (SEM images, MATLAB quantification). The assay is classed as cell-based, human. Particulars: healthy donor neutrophils pooled n=4, 6 hrs.

Turning to `CNc1ccc2oc(C[C@H]3O[C@@]4(CC[C@H]3C)O[C@H]([C@H](C)C(=O)c3ccc[nH]3)[C@H](C)C[C@H]4C)nc2c1C(=O)O` [A23187], the “induction of NETosis in healthy neutrophils” value is given as “stimulated to NETosis”.

Turning to `CCCCCCCCCCCCCC(=O)O[C@@H]1[C@@H](C)[C@@]2(O)[C@@H](C=C(CO)C[C@]3(O)C(=O)C(C)=C[C@@H]23)[C@@H]2C(C)(C)[C@]12OC(C)=O` [PMA, Phorbol 12-myristate 13-acetate], the “induction of NETosis in healthy neutrophils” value is given as “stimulated to NETosis”.
